Data published in patent US9744186B2 (priority 2012, dated 2017).

How the values were obtained:
HCV luciferase replicon [1] = test: Reversal of anti-HCV activity by exogenous nucleosides; assay type: cell-based, hepatitis C virus (HCV); conditions: 48 h
Protocol: After 48 hours, the cells were lysed, and the total luciferase activity was determined. […] Where indicated, either 50 μM cytidine (C) or 50 μM 2′-deoxycitidine (dC) was also included.
The cells were plated, incubated with drug, and luciferase activity assayed essentially as described herein above. The incubation with drug was for 48 h.

HCV luciferase replicon [2] = test: HCV luciferase replicon IC50 assay in Huh7 cells; conditions: for IC50: Hepatitis C virus, Huh-7, 48 h, Huh7 cells containing HCV luciferase replicon, cells exposed to drug for 48 h; for Therapeutic Index (TC50/IC50): TC50 in Huh7 / IC50 HCV replicon, 48 h
Protocol: Plating Cells: The Luciferase replicon cell line was passaged when it was at about 70% confluency. The cells were counted by using a hemocytometer and diluted to 1×10^5 cells per mL in DMEM+10% FBS+[…] G415. The cells were plated as follows: 100 μL of the cells (10,000 cells) per well in a white-walled 96-well plate. The cells were allowed to attach for 24 hours at 37° C.
(§1) Treating the cells: Media (DMEM+2% FBS) was pre-warmed to 37° C. […] The 96-well plate was removed from the 37° C. incubator, and the media replaced on the plate with the serial dilutions of the test drug. The plate was then returned to 37° C. for 48 h.
Luciferase Assay: The Bright-Glo reagent (Promega Corporation, Madison, Wis.) was removed from the −80° C. freezer and allowed to thaw it at 4° C. in the dark. The amount of reagent necessary for the experiment (3.65 mL) was removed, and the remaining reagent was returned to −80° C. The Glo Lysis Buffer and the Bright Glow reagent were allowed to warm to room temperature for 30 min in the dark. The 96 well plate was removed from the incubator and the cells to allowed cool to room temperature for 30 min. The media was removed from the cells, and each well was gently washed in 100 μL of phosphate buffered saline (PBS). The PBS was removed and then 50 μL of the Glo Lysis Buffer was added to each well, followed by gently rocking the plate for 15 min at room temperature in the dark to ensure complete cell lysis. To each well of the 96-well plate was added 50 μL of the Bright Glo reagent and it was mixed well with the lysate. The plate was inserted into a GloMax 96 plate reader and allowed to sit for 5 min in the dark for the luciferase reaction to reach a steady state. The luminescence on the plate was read by using the pre-installed “Bright Glo” Promega program (Synergy Software) and the data were collected and saved. The data were fit to a 4 parameter logistic curve using Kaleidagraph using the following equation: 100/(1+(x/m3)^m4).
The data in Table 1 were determined for cells exposed to drug for 48 h. The IC50 is the concentration of each compound necessary to inhibit the replication of the HCV luciferase replicon to 50%.
That is, the cells were exposed to drug for 2 h at 37° C., followed by 46 h at 37° C. or incubated in the presence of drug for 48 h at 37° C.

Huh7 cells [3] = test: in vitro; conditions: read-out: TC50; control Huh7 cells; 48 h drug exposure; MTS
Protocol: (§2) Plating Cells: The Huh7 cell line was passaged when it was at about 70% confluency. The cells were counted using a hemocytometer, followed by dilution of the cells to 0.5×10^5 cells per mL in DMEM+10% FBS. The cells were plated at 100 μL (5,000 cells) per well in a clear 96-well plate. The cells were allowed to attach for 24 hours at 37° C.
(§3) Treating the cells: The media (DMEM media without phenol red+2% FBS media) was pre-warmed to 37° C. […] This provided a final DMSO concentration of 0.5%. The 100 mM stock of 3,5-dichlorobenzoic acid was diluted in DMEM without phenol red+2% FBS to a concentration of 0.5 mM. The working 0.5 mM diluted test drugs were serially diluted in DMEM without phenol red+2% FBS+0.5% DMSO in order to maintain a constant concentration of DMSO in each condition. The 96-well plate was removed from the 37° C. incubator, and the media on the plate was replaced with media containing diluted test drug.
(§4) MTS Assay: The reagents from CellTiter 96 kit (Promega Corporation, Madison, Wis.) were thawed at room temperature in the dark for 1 h. The 96-well plate was removed from the 37° C. incubator at 48 h after drug treatment. 20 μL of the combined MTS/PMS reagent to each well of the plate, mixed, and the plate returned to 37° C. The absorbance of each well at 490 nm and 650 nm was determined using the Flexstation 3 microplate reader in endpoint mode every hour for 3 h. The solutions in the wells were mixed prior to each reading. The data were fit to the Emax model: y=(Emax*x)/(TC50+x), where Emax is the maximum inhibition and TC50 is the inhibitory dose 50%. Alternatively, the data can be fit to the Emax sigmoidal model: y=(Emax*x^slope)/(TC50^slope+x^slope), where slope is the Hill Slope.

[4] = TC50 MTS assay with human cancer cell lines: HEK293; assay type: cell-based; conditions: HEK293 cells, 96 h drug treatment
Protocol: (§5) Plating Cells: The Huh7, HEPG2, HEK293, MCF-7, PK9, RPK9, or BxPC3 cells were passaged when they were about 70% confluent. The cells were counted using a hemocytometer, and then diluted cells to 0.5×10^5 cells per mL in DMEM+10% FBS. 100 µL of the cells (5,000 cells) were plated per well in a clear 96-well plate. The cells were allowed to attach for 24 hours at 37° C.
(§6) Treating the cells: Pre-warm the DMEM media without phenol red+2% FBS media to 37° C. […] This will bring the final DMSO concentration to 0.5%. Use these 0.5 mM dilutions to further serially the drugs in DMEM without phenol red+2% FBS+0.5% DMSO. This will keep the concentration of DMSO in each condition identical. Remove the 96-well plate from the 37° C. incubator. Replace the media on the plate with the dilutions of the drugs. Stagger these treatments by 1 h and write the treatment time on each set of plates. Return to 37° C. for 48 h or 96 h as indicated.
as §4, with “Fit Data” for “The data were fit”, “Alternatively, fit” for “Alternatively,”, “data” for “data can be fit”
(§7) Each TC50 was the average value of three measurements as described herein. […] The RPK9 cells are deficient in deoxycytidine kinase (“dCK”) activity, an enzyme required for the initial phosphorylation of dFdC to dFdCMP (see FIG. 2).

[5] = TC50 MTS assay with human cancer cell lines: MCF-7; assay type: cell-based; conditions: MCF-7 cells, 96 h drug treatment
Protocol: as §5, §6
as §4, with “Fit Data” for “The data were fit”, “Alternatively, fit” for “Alternatively,”, “data” for “data can be fit”
as §7

[6] = TC50 MTS assay with human cancer cell lines: HEPG2; assay type: cell-based; conditions: HEPG2 cells, 96 h drug treatment
Protocol: as §5, §6
as §4, with “Fit Data” for “The data were fit”, “Alternatively, fit” for “Alternatively,”, “data” for “data can be fit”
as §7

[7] = Compound solubility in media; assay type: physicochemical; conditions: DMEM+2% FBS cell culture media, 37 °C, plasma or biological fluid, kinetic from dmso stock; DMEM+2% FBS media
Protocol: as §1

Huh7 cells [8] = test: TC50 MTS assay with human cancer cell lines: Huh7; assay type: cell-based; conditions: 96 h drug treatment
Protocol: as §5, §6
as §4, with “Fit Data” for “The data were fit”, “Alternatively, fit” for “Alternatively,”, “data” for “data can be fit”
as §7

in vitro = test: in vitro
Protocol: as §2, §3, §4

[9] = TC50 MTS assay with human cancer cell lines: Huh7; assay type: cell-based; conditions: human, Huh7 cells; 48 h drug treatment; no hENT1 inhibitor; read-out: TC50 (μM) in Huh7 cells Control
Protocol: as §5, §6
as §4, with “Fit Data” for “The data were fit”, “Alternatively, fit” for “Alternatively,”, “data” for “data can be fit”
as §7

hENT1 = test: TC50 MTS assay with human cancer cell lines: Huh7; assay type: cell-based; conditions: human, Huh7 cells; 48 h drug treatment; 10 μM S-(4-nitrobenzyl)-6-thioinosine (hENT1 inhibitor) added; read-out: TC50 (μM) in Huh7 cells NBTI
Protocol: as §5, §6
as §4, with “Fit Data” for “The data were fit”, “Alternatively, fit” for “Alternatively,”, “data” for “data can be fit”
as §7

In the case of `O=C(O)c1cc(Cl)cc(Cl)c1` [3,5-dichlorobenzoic acid, reference compound], the “effect on the HCV luciferase replicon” value (HCV luciferase replicon [1]; up to 500 μM) is reported as “little effect”.
For `COc1cccc(OC)c1C(=O)Nc1ccn([C@@H]2O[C@H](CO)[C@@H](O)C2(F)F)c(=O)n1` [Compound G2DB, N^4-(2,6-Dimethoxybenzoyl)gemcitabine], the IC50 (HCV luciferase replicon [2]) was 0.451 ± 0.037 µM, the “Therapeutic Index (TC50/IC50)” value (HCV luciferase replicon [2]) was 10155 and the CC50 (Huh7 cells [3]) was 4580 ± 1100 µM.
For `COc1cc(OC)cc(C(=O)Nc2ccn([C@@H]3O[C@H](CO)[C@@H](O)C3(F)F)c(=O)n2)c1` [Compound G3DB, N^4-(3,5-Dimethoxybenzoyl)gemcitabine], the CC50 at 96 h [4] was 4.02 ± 0.79 µM, the “reversal of the inhibition of the HCV luciferase replicon by deoxycytidine and cytidine” value (HCV luciferase replicon [1]; drug 1000, 100 or 25 nM, 50 μM cytidine or 2′-deoxycitidine) was “reversal” and the CC50 at 96 h [5] was 1.57 ± 0.338 µM. The IC50 (HCV luciferase replicon [2]) was 0.0734 ± 0.012 µM, the “Therapeutic Index (TC50/IC50)” value (HCV luciferase replicon [2]) was 13100 and the CC50 at 96 h [6] was 3.86 ± 1.42 µM. The solubility [7] was > 500 µM, the CC50 (Huh7 cells [8]) was 18.5 ± 5.32 µM and the CC50 (Huh7 cells [3]) was 962 ± 110 µM.
In the case of `O=C(Nc1ccn(C2O[C@H](CO)[C@@H](O)C2(F)F)c(=O)n1)c1ccc(Cl)cc1Cl` (stereo partly drawn) [VV-006], the IC50 (HCV luciferase replicon [2]) is reported as 0.0775 ± 0.007 µM, the “Therapeutic Index (TC50/IC50)” value (HCV luciferase replicon [2]) is reported as >1290 and the solubility [7] is reported as < 500 µM. The CC50 at 48 h (in vitro) was > 100 µM.
For `O=C(Nc1ccn(C2O[C@H](CO)[C@@H](O)C2(F)F)c(=O)n1)c1ccc(Cl)c(Cl)c1` (stereo partly drawn) [VV-007], the IC50 (HCV luciferase replicon [2]) was 0.0174 ± 0.0018 µM, the “Therapeutic Index (TC50/IC50)” value (HCV luciferase replicon [2]) was >5750 and the solubility [7] was > 500 µM. The CC50 at 48 h (in vitro) was > 100 µM.
In the case of `COc1c(Cl)cc(C(=O)Nc2ccn(C3O[C@H](CO)[C@@H](O)C3(F)F)c(=O)n2)cc1Cl` (stereo partly drawn) [VV-012], the IC50 (HCV luciferase replicon [2]) is reported as 0.0193 ± 0.0016 µM, the “Therapeutic Index (TC50/IC50)” value (HCV luciferase replicon [2]) is reported as >5180 and the solubility [7] is reported as > 500 µM. The CC50 at 48 h (in vitro) was > 100 µM.
With `COc1ccc(C(=O)Nc2ccn(C3O[C@H](CO)[C@@H](O)C3(F)F)c(=O)n2)cc1` (stereo partly drawn) [VV-013] the IC50 (HCV luciferase replicon [2]) was 0.06 ± 0.0082 µM, the “Therapeutic Index (TC50/IC50)” value (HCV luciferase replicon [2]) was 9530 and the solubility [7] was > 500 µM. For the same compound, the CC50 at 48 h (in vitro) was 572 ± 73 µM.
For `COc1ccc(C(=O)Nc2ccn(C3O[C@H](CO)[C@@H](O)C3(F)F)c(=O)n2)c(OC)c1OC` (stereo partly drawn) [VV-022], the IC50 (HCV luciferase replicon [2]) was 0.0346 ± 0.0035 µM, the “Therapeutic Index (TC50/IC50)” value (HCV luciferase replicon [2]) was 8670 and the solubility [7] was > 500 µM. It also gave a CC50 at 48 h (in vitro) of 300 ± 39 µM.
With `O=C(Nc1ccn(C2O[C@H](CO)[C@@H](O)C2(F)F)c(=O)n1)c1ccc(Cl)cc1` (stereo partly drawn) [VV-033H] the IC50 (HCV luciferase replicon [2]) was 0.0376 ± 0.0054 µM, the “Therapeutic Index (TC50/IC50)” value (HCV luciferase replicon [2]) was 3670 and the CC50 at 48 h (in vitro) was 138 ± 28 µM.
In the case of `Cc1ccc(C(=O)Nc2ccn(C3O[C@H](CO)[C@@H](O)C3(F)F)c(=O)n2)cc1` (stereo partly drawn) [VV-036], the IC50 (HCV luciferase replicon [2]) is reported as 0.0431 ± 0.0044 µM, the “Therapeutic Index (TC50/IC50)” value (HCV luciferase replicon [2]) is reported as 7650 and the CC50 at 48 h [9] is reported as 329 ± 57 µM. For the same compound, the CC50 at 48 h (hENT1) was 240 ± 40 µM.
In the case of `CCc1ccc(C(=O)Nc2ccn(C3O[C@H](CO)[C@@H](O)C3(F)F)c(=O)n2)cc1` (stereo partly drawn) [VV-038], the IC50 (HCV luciferase replicon [2]) is reported as 0.0584 ± 0.0099 µM, the “Therapeutic Index (TC50/IC50)” value (HCV luciferase replicon [2]) is reported as 8430 and the CC50 at 48 h [9] is reported as 492 ± 58 µM. The CC50 at 48 h (hENT1) was 360 ± 80 µM.
In the case of `NC(=O)c1ncn([C@@H]2O[C@H](CO)[C@@H](O)[C@H]2O)n1` [ribavirin, reference compound], the IC50 (HCV luciferase replicon [2]) is reported as 51.6 ± 2.08 µM, the “Therapeutic Index (TC50/IC50)” value (HCV luciferase replicon [2]) is reported as 10.2 and the solubility [7] is reported as > 500 µM. The CC50 at 48 h (in vitro) was 527 ± 68.2 µM.
